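Step 1: Grow cells in 96-well plates. Step 2: Expose to compound for 48 hours at 5 concentrations. Step 3: Interpolate endpoints linearly; if unreached, use highest concentration. The concentration for 50% growth inhibition is given as GI50. TGI: total growth inhibition.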
What was measured:
Assay in all cases: NCI anticancer screen, dose series, 48 h
[1] = tested on: CCRF-CEM leukemia
[2] = tested on: A498 renal
[3] = tested on: NCI-H460 lung
[4] = tested on: OVCAR-5 ovarian
[5] = tested on: KM12 colon
[6] = tested on: UO-31 renal
[7] = tested on: LOX IMVI melanoma
[8] = tested on: 786-0 renal
[9] = tested on: K-562 leukemia
[10] = tested on: RPMI-8226 leukemia

Question: How did the GI50 [1] turn out when `C[C@]12CC[C@@H]3c4ccc(O)cc4CC[C@H]3[C@@H]1CC[C@@H]2NS(=O)(=O)c1cccc(Br)c1` was run?
Answer: The GI50 was 3.06 µM.

Question: And the TGI [1]?
Answer: The TGI was 20.3 µM.

Question: And the GI50 [2]?
Answer: The GI50 was 1.8 µM.

Question: What about the TGI [2] of the same compound?
Answer: The TGI was 8.45 µM.

Question: And the GI50 [3]?
Answer: Its GI50 is 2.53 µM.

Question: What about the TGI [3] of the same compound?
Answer: Its TGI is 6.67 µM.

Question: What about the GI50 [4] of the same compound?
Answer: The GI50 was 4.09 µM.

Question: And the TGI [4]?
Answer: Its TGI is 16.3 µM.

Question: What about the GI50 [5] of the same compound?
Answer: Its GI50 is 2.31 µM.

Question: And the TGI [5]?
Answer: Its TGI is 6.76 µM.

Question: And the GI50 [6]?
Answer: Its GI50 is 2.03 µM.

Question: What about the TGI [6] of the same compound?
Answer: The TGI was 8.72 µM.

Question: And the GI50 [7]?
Answer: Its GI50 is 3.13 µM.

Question: And the TGI [7]?
Answer: Its TGI is 11.6 µM.

Question: And the GI50 [8]?
Answer: The GI50 was 3.25 µM.

Question: What about the TGI [8] of the same compound?
Answer: The TGI was 10.4 µM.

Question: What about the GI50 [9] of the same compound?
Answer: Its GI50 is 3.59 µM.

Question: And the TGI [9]?
Answer: The TGI was 14.8 µM.

Question: And the GI50 [10]?
Answer: The GI50 was 3.41 µM.

Question: And the TGI [10]?
Answer: Its TGI is 17.3 µM.

Question: `CN/N=C(\C)CC(=O)Nc1cccc(Cl)c1C` was tested. Which TGI [1] did it give?
Answer: Its TGI is > 100 µM.

Question: What about the TGI [2] of the same compound?
Answer: The TGI was > 100 µM.

Question: And the TGI [3]?
Answer: The TGI was > 100 µM.

Question: And the TGI [4]?
Answer: The TGI was > 100 µM.

Question: And the TGI [5]?
Answer: Its TGI is > 100 µM.

Question: And the TGI [6]?
Answer: Its TGI is > 100 µM.

Question: What about the TGI [7] of the same compound?
Answer: The TGI was > 100 µM.

Question: What about the TGI [8] of the same compound?
Answer: Its TGI is > 100 µM.

Question: And the TGI [9]?
Answer: The TGI was > 100 µM.

Question: What about the TGI [10] of the same compound?
Answer: The TGI was > 100 µM.

Question: Which TGI [1] does the source give for `O=C(O)/C(O)=C1/C=C(c2ccccc2)c2ccccc21` here?
Answer: Its TGI is 46.6 µM.

Question: And the TGI [2]?
Answer: Its TGI is 98.9 µM.

Question: What about the TGI [3] of the same compound?
Answer: The TGI was 62.7 µM.

Question: What about the TGI [4] of the same compound?
Answer: Its TGI is 72.2 µM.

Question: What about the TGI [5] of the same compound?
Answer: The TGI was 32.4 µM.

Question: What about the TGI [6] of the same compound?
Answer: The TGI was 41.6 µM.

Question: What about the TGI [7] of the same compound?
Answer: The TGI was 36.1 µM.

Question: And the TGI [8]?
Answer: The TGI was 78 µM.

Question: And the TGI [9]?
Answer: The TGI was 73.5 µM.

Question: What about the TGI [10] of the same compound?
Answer: Its TGI is 56.8 µM.

Question: How did the TGI [1] turn out when `Cc1oc2c(c1C(=O)c1ccccc1)C(=O)c1ccccc1C2=O` was run?
Answer: The TGI was 5.76 µM.

Question: What about the TGI [2] of the same compound?
Answer: The TGI was 33.9 µM.

Question: What about the TGI [3] of the same compound?
Answer: Its TGI is 34.2 µM.

Question: And the TGI [4]?
Answer: Its TGI is 31.5 µM.

Question: What about the TGI [5] of the same compound?
Answer: The TGI was 18.7 µM.

Question: What about the TGI [6] of the same compound?
Answer: The TGI was 22.4 µM.

Question: And the TGI [7]?
Answer: Its TGI is 7.52 µM.

Question: What about the TGI [8] of the same compound?
Answer: Its TGI is 10.6 µM.

Question: What about the TGI [9] of the same compound?
Answer: The TGI was 5.89 µM.

Question: And the TGI [10]?
Answer: The TGI was 23.8 µM.

Question: With `O=[N+]([O-])c1ccc(N(CCO)CCO)c2c1no[n+]2[O-]` as the compound, how does the GI50 [1] read?
Answer: Its GI50 is 0.704 µM.

Question: And the TGI [1]?
Answer: Its TGI is 4.71 µM.

Question: What about the GI50 [2] of the same compound?
Answer: Its GI50 is 1.58 µM.

Question: What about the TGI [2] of the same compound?
Answer: The TGI was 3.68 µM.

Question: And the GI50 [3]?
Answer: Its GI50 is 0.645 µM.

Question: And the TGI [3]?
Answer: The TGI was 2.72 µM.

Question: What about the GI50 [4] of the same compound?
Answer: Its GI50 is 2.78 µM.

Question: And the TGI [4]?
Answer: The TGI was 10.3 µM.

Question: And the GI50 [5]?
Answer: The GI50 was 1.16 µM.

Question: And the TGI [5]?
Answer: The TGI was 2.53 µM.

Question: What about the GI50 [6] of the same compound?
Answer: Its GI50 is 2.01 µM.

Question: And the TGI [6]?
Answer: Its TGI is 8.65 µM.

Question: And the GI50 [7]?
Answer: Its GI50 is 1.03 µM.

Question: And the TGI [7]?
Answer: Its TGI is 2.43 µM.

Question: What about the GI50 [8] of the same compound?
Answer: Its GI50 is 1.8 µM.

Question: What about the TGI [8] of the same compound?
Answer: Its TGI is 4.21 µM.

Question: What about the GI50 [9] of the same compound?
Answer: Its GI50 is 1.58 µM.

Question: And the TGI [9]?
Answer: The TGI was 4.65 µM.

Question: What about the GI50 [10] of the same compound?
Answer: The GI50 was 1.22 µM.

Question: What about the TGI [10] of the same compound?
Answer: The TGI was 4.08 µM.

Question: How did the GI50 [1] turn out when `O=C(c1cccs1)c1c(C(F)(F)F)n([O-])c2cc(F)c(F)cc2[n+]1=O` was run?
Answer: Its GI50 is 0.18 µM.

Question: What about the TGI [1] of the same compound?
Answer: The TGI was 0.729 µM.

Question: What about the GI50 [2] of the same compound?
Answer: The GI50 was 1.46 µM.

Question: What about the TGI [2] of the same compound?
Answer: The TGI was 3.79 µM.

Question: And the GI50 [3]?
Answer: Its GI50 is 2.03 µM.

Question: What about the TGI [3] of the same compound?
Answer: The TGI was 12.5 µM.

Question: And the GI50 [4]?
Answer: The GI50 was 3.57 µM.

Question: What about the TGI [4] of the same compound?
Answer: Its TGI is 5.58 µM.

Question: What about the GI50 [5] of the same compound?
Answer: Its GI50 is 4.95 µM.

Question: And the TGI [5]?
Answer: Its TGI is 8.73 µM.

Question: What about the GI50 [6] of the same compound?
Answer: The GI50 was 2.97 µM.

Question: And the TGI [6]?
Answer: Its TGI is 5.51 µM.

Question: And the GI50 [7]?
Answer: Its GI50 is 0.747 µM.

Question: And the TGI [7]?
Answer: Its TGI is 1.78 µM.

Question: What about the GI50 [8] of the same compound?
Answer: Its GI50 is 4.44 µM.

Question: What about the TGI [8] of the same compound?
Answer: Its TGI is 8.75 µM.

Question: And the GI50 [9]?
Answer: The GI50 was 0.71 µM.

Question: What about the TGI [9] of the same compound?
Answer: Its TGI is 2.44 µM.

Question: What about the GI50 [10] of the same compound?
Answer: Its GI50 is 0.501 µM.

Question: And the TGI [10]?
Answer: Its TGI is 3.51 µM.

Question: How did the GI50 [1] turn out when `N#CC1=C(N)Oc2c(sc3c(F)cccc23)C1c1ccc([N+](=O)[O-])cc1` (stereo not given) was run?
Answer: The GI50 was 0.179 µM.

Question: What about the TGI [1] of the same compound?
Answer: Its TGI is 3.23 µM.

Question: What about the GI50 [2] of the same compound?
Answer: The GI50 was 0.0219 µM.

Question: And the TGI [2]?
Answer: Its TGI is 0.691 µM.

Question: What about the GI50 [3] of the same compound?
Answer: Its GI50 is 0.253 µM.

Question: And the TGI [3]?
Answer: Its TGI is 1.17 µM.

Question: And the GI50 [4]?
Answer: Its GI50 is 0.552 µM.

Question: What about the TGI [4] of the same compound?
Answer: Its TGI is 2.26 µM.

Question: And the GI50 [5]?
Answer: The GI50 was 0.141 µM.

Question: And the TGI [5]?
Answer: The TGI was 1.27 µM.

Question: And the GI50 [6]?
Answer: The GI50 was 0.197 µM.

Question: And the TGI [6]?
Answer: The TGI was 1.03 µM.

Question: What about the GI50 [7] of the same compound?
Answer: Its GI50 is 0.133 µM.

Question: What about the TGI [7] of the same compound?
Answer: Its TGI is 1.09 µM.

Question: And the GI50 [8]?
Answer: Its GI50 is 0.337 µM.

Question: And the TGI [8]?
Answer: The TGI was 1.46 µM.

Question: What about the GI50 [9] of the same compound?
Answer: Its GI50 is 0.0494 µM.

Question: What about the TGI [9] of the same compound?
Answer: The TGI was 1.79 µM.

Question: And the GI50 [10]?
Answer: The GI50 was 0.215 µM.

Question: What about the TGI [10] of the same compound?
Answer: Its TGI is 1.45 µM.

Question: For `NC(=O)c1c(OCc2c(F)cc(Br)cc2F)nsc1NC(=O)NCCCCN1CCCC1`, which GI50 [1] is on record?
Answer: The GI50 was 2.77 µM.

Question: And the TGI [1]?
Answer: Its TGI is 8.17 µM.

Question: And the GI50 [2]?
Answer: The GI50 was 0.086 µM.

Question: What about the TGI [2] of the same compound?
Answer: The TGI was 0.91 µM.

Question: What about the GI50 [3] of the same compound?
Answer: Its GI50 is 2.6 µM.

Question: What about the TGI [3] of the same compound?
Answer: The TGI was > 10 µM.

Question: What about the GI50 [4] of the same compound?
Answer: Its GI50 is 3.1 µM.

Question: And the TGI [4]?
Answer: Its TGI is > 10 µM.

Question: What about the GI50 [5] of the same compound?
Answer: The GI50 was 2.73 µM.

Question: What about the TGI [5] of the same compound?
Answer: The TGI was > 10 µM.

Question: What about the GI50 [6] of the same compound?
Answer: Its GI50 is 0.498 µM.

Question: And the TGI [6]?
Answer: The TGI was 2.1 µM.

Question: What about the GI50 [7] of the same compound?
Answer: Its GI50 is 1.16 µM.

Question: What about the TGI [7] of the same compound?
Answer: The TGI was 2.5 µM.

Question: What about the GI50 [8] of the same compound?
Answer: Its GI50 is 1.43 µM.

Question: What about the TGI [8] of the same compound?
Answer: The TGI was 4.42 µM.

Question: What about the GI50 [9] of the same compound?
Answer: Its GI50 is 1.44 µM.

Question: What about the TGI [9] of the same compound?
Answer: Its TGI is 5.91 µM.

Question: What about the GI50 [10] of the same compound?
Answer: Its GI50 is 2.4 µM.

Question: What about the TGI [10] of the same compound?
Answer: The TGI was 6 µM.

From PubChem BioAssay (NCI)
